Like-named read-outs stand apart in the source and are kept apart here.
Assays:
[1] = system: clathrin-dependent endocytosis; conditions: cited from earlier work
DENV-2 [2] = experiment: Virus entry assay (confocal microscopy, plaque-forming assay of internalized virus); assay type: cell-based, Dengue virus serotype 2
Protocol: Solvent control or PCZ (15 and 20 μM) was added 15 min before the end of virus adsorption. After a washing with PBS, cells were then shifted to 37° C. for an additional 1 h incubation. Live-cell staining was performed before cell fixation to label the cell membrane with CellMask (red) and nuclei with Hoechst (blue). […] (B) Plaque-forming assay of internalized DENV-2. […] After a washing with PBS, cells were shifted to 37° C. for an additional 1 h. Cells were physically destroyed to release the internalized DENV-2 and internalized virus was quantified by plaque-forming assays.
At 15 min before the end of virus adsorption, PCZ was added to the cell cultures. Cells were gently washed once with cold PBS, then were shifted to a 37° C. CO2 incubator for an additional 1 h to allow virus entry with or without PCZ. […] Cells were washed 3 times with cold washing buffer and once with cold PBS, then were fixed with 4% PFA for 10 min on ice. […] Level of virus titers was determined by plaque-forming assay.

DENV-2 replicon = DENV-2 replicon dual luciferase assay; assay type: cell-based, Dengue virus serotype 2; conditions: HEK293T, PCZ 10 μM applied 5 h post-transfection
Protocol: DENV-2 replicon was constructed to contain the SP6 promoter upstream of a Renilla luciferase gene flanked by the DENV 5′ UTR plus a portion of the core gene in the 5′ end; portions of the envelope gene, full length of non-structural genes and 3′ UTR in the 3′ end. In vitro transcription was performed to generate the replicon RNA. HEK293T cells were co-transfected with replicon RNA and control firefly luciferase RNA. PCZ (10 μM) was applied to the transfected cells at 5 h post-transfection. Cells were then harvested at the indicated times for dual luciferase assays. Data are mean and SD of relative renilla luciferase to firefly luciferase from two independent experiments.

DENV-2 [3] = experiment: D2R dependence of PCZ inhibition of DENV-2 binding in N18, shLacZ-N18 and shD2R-N18 cells (NS3 Western blot); assay type: cell-based, Dengue virus serotype 2
Protocol: The lentivirus vector pLKO.1 carrying a short hairpin RNA (shRNA) targeting the mouse dopamine D2 receptor (5′-[…]-3′, SEQ ID NO: 1) or LacZ (5′-[…]-3′, SEQ ID NO: 2) from the Taiwan National RNAi Core Facility was cotransfected with pMD.G and pCMVΔR8.91 into HEK293T cells by use of Lipofectamine 2000 (INVITROGEN™). The lentiviruses were harvested from culture supernatants and concentrated by ultracentrifugation at 35,000 rpm in a Beckman SW41 rotor for 3.5 h at 4° C. The viral pellets were resuspended and used to transduce N18 cells. The D2R-deficient N18 cells (shD2R-N18) and LacZ-control cells (shLacZ-N18) were selected with puromycin (5 μg/ml).

HCV = conditions: cell-based screening; cited from earlier work
DENV-2 [4] = experiment: Cell-based antiviral assay against DENV-2 (IFA, immunoblotting of NS3, plaque-forming assay); parameters: species or system Dengue virus serotype 2 (PL046 strain); conditions: for EC50: read-out: half-maximal effective concentration (EC50) against DENV-2 infection
Protocol: (A) PCZ cytotoxicity test. HEK293T cells were treated with solvent control or the indicated concentrations of PCZ for 24 h. AlamarBlue, XTT, and LDH assays were carried out to determine cell viability, cell proliferation, and cytotoxicity, respectively. Data are mean and standard deviation (SD) of 3 independent experiments. […] Representative immunofluorescence microscopy (400× magnification) of cells immunostained for DENV-2 NS3 (green) and DAPI for nuclei (blue). […] Plaque-forming assay of viral progeny production (plaque forming unit, PFU/ml) in culture supernatants of cells in panel C (D). Data are mean and SI) of 2 independent experiments. *P<0.05.
(A) PCZ cytotoxicity test. HEK293T cells were treated with solvent control or the indicated concentrations of PCZ (5, 10, 15, 20 and 25 μM). AlamarBlue, XTT and LDH assays were carried out to determine cell viability, cell proliferation, and cytotoxicity, respectively. […] (D) Plaque-forming assay of viral progeny production (plaque forming unit, PFU/ml): Data are mean and SD of two independent experiments. **P<0.01. […] BHK-21 cells (E) and N18 cells (F) infected with DENV-2 (MOI=0.1) were treated with or without PCZ for 2 days and 1 day, respectively.
HEK293T cells were infected with DENV-2 (MOI=0.1) with or without haloperidol for 1 day.
Monolayers of cells (HEK293T, BHK-21 and N18) in 6- or 12-well plates were infected with DENV-2 at the indicated multiplicity of infection (MOI). Virus was adsorbed for 2 h with the indicated concentrations of PCZ, then cells were washed thoroughly to remove unbound viruses and incubated for an additional 24 to 48 h with or without PCZ. The antiviral effect of PCZ was evaluated by immunofluorescence assay (IFA), immunoblotting and plaque-forming assay.
Cells were fixed with 4% PFA and permeabilized with 0.5% Triton X-100 in PBS.

DENV-2 [5] = experiment: Virus binding assay (confocal microscopy, plaque-forming assay of cell-bound virus)
[6] = mice, cited from earlier work
DENV-2 NGC-N strain = experiment: Animal study: DENV-2 challenge of Stat1-deficient mice; assay type: in vivo
Protocol: Stat1^−/− mice were challenged with 5×10^4 PFU/mouse of DENV-2 NGC-N strain. The protective effect of PCZ dimaleate (A) and PCZ dimethanesulfonate (Novamin Injection) (B) were tested with immediate and 6-h delay treatment. (A) The mice received phosphate buffered saline (PBS; vehicle control, n=10), 5 mg (n=8) or 1 mg (n=8) PCZ-dimaleate/kg body weight/i.p. at the time of infection (immediate treatment), or 5 mg PCZ-dimaleate/kg body weight/i.p. at 6 h post-infection (6-h delay treatment, n=8). Mice received follow-up treatment with PBS (vehicle control) or half the dose of PCZ-dimaleate orally every 12 h until day-10 post infection. […] The days with treatment are marked by arrows. Mice survival was checked daily and the data are presented as percentage of survival.
The mouse experiments were approved and performed in accordance with the guidelines of the Academia Sinica Institutional Animal Care and Utilization Committee. Groups of 5-week-old Stat1-deficient (SaT1^−/−) mice were challenged intraperitoneally (i.p.) with 5×10^4 plaque-forming units (PFU)/mouse of DENV-2 NGC-N strain and simultaneously injected with 30 μl PBS intracranially (i.c.) into the right hemisphere of the brain. To study the efficacy of PCZ-dimaleate administered mainly by an oral route, mice were divided into 4 groups for treatment: PBS (vehicle control); 5 or 1 mg of PCZ/kg body weight/i.p. at the time of infection (immediate treatment); or 5 mg of PCZ/kg body weight/i.p. at 6 h post-infection (6-h delay treatment). Thereafter, twice a day, mice received a half dose of the first treatment orally with PBS (vehicle control) or 2.5 or 0.5 mg of PCZ/kg body weight/oral/12 h up to day 10 post-infection. […] Thereafter, every 2 days, mice received PBS or the same dose of PCZ up to day 10 post-infection. The mice were checked daily for mortality.

clathrin = experiment: Clathrin distribution during viral entry assay (confocal imaging); assay type: cell-based, human; conditions: HEK293 cells, PCZ 20 and 30 μM, compared to solvent-treated cells
Protocol: Cells were fixed with 4% PFA and permeabilized with 0.5% Triton X-100 in PBS. After a blocking with 5% skim milk in PBS, DENV protein expression was detected in cells incubated with mouse anti-DENV-2 NS3 antibody (49), then Alexa Fluor-488-conjugated anti-mouse secondary antibody (Molecular Probes) for 1 h at room temperature. The nuclei were stained with DAPI or Hoechst (Molecular Probes). Cells were examined under an inverted fluorescence microscope (Olympus 1X71). For confocal microcopy, cells were seeded on coverslips in 24-well culture plates. After virus absorption and treatment, cells were extensively washed with cold washing buffer and PBS, then fixed with cold 4% PFA. Cells were washed twice with cold 10 mM glycine solution, then PBS. For clathrin staining, cells were permeabilized with 0.5% Triton X-100 in PBS and blocked with 5% BSA in PBS. Cells were stained with mouse anti-clathrin heavy chain (X22) (Pierce, MA1-065), then anti-mouse Alexa Fluor-568-conjugated secondary antibody (Molecular Probes). The coverslip was mounted onto a slide and examined under confocal laser scanning microscope (ZEISS LSM 700).

[7] = system: Japanese encephalitis virus (JEV); experiment: Antiviral assay against JEV (NS3 Western blot); assay type: cell-based; conditions: BHK-21 cells, MOI=0.1, 2 days
[8] = biological target: mouse dopamine D2 receptor (mouse) (UniProt P61168)
Chain of mouse dopamine D2 receptor (mouse) (P61168 other isoform, or with tags, fused parts or gaps): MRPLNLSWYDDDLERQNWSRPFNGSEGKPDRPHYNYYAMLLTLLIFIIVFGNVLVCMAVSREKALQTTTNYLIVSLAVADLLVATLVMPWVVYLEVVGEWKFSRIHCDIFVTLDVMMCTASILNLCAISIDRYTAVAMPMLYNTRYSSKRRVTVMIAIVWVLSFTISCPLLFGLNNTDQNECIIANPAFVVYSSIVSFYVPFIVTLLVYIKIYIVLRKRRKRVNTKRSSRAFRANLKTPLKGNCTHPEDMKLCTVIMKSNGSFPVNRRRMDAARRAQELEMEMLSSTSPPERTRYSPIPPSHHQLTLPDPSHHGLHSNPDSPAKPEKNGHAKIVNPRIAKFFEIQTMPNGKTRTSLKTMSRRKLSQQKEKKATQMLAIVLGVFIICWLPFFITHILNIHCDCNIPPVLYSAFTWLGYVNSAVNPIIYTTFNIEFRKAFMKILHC

DENV-1 = experiment: Antiviral assay against DENV-1 (NS3 Western blot); conditions: HEK293T, MOI=0.1, 2 days
[9] = 2 mg PCZ/kg body weight/2 days i.p., immediate treatment

CN(C)CCCN1c2ccccc2Sc2ccc(Cl)cc21 [Chlorpromazine]
clathrin-dependent endocytosis [1]: inhibits clathrin-dependent endocytosis

CN1CCN(CCCN2c3ccccc3Sc3ccc(Cl)cc32)CC1 [PCZ, prochlorperazine]
levels of DENV-2 internalization quantified by plaque forming assay (DENV-2 [2]; BHK-21 cells, MOI=5): significantly reduced
amounts of DENV-2 in the intracellular compartment (confocal microscopy) (DENV-2 [2]; HEK293T, PCZ 15 and 20 μM, 1 h at 37° C.): greatly reduced
relative renilla luciferase to firefly luciferase (DENV-2 translation and RNA replication) (DENV-2 replicon): No significant difference
antiviral effect of PCZ given during binding (NS3) (DENV-2 [3]; N18 cells): noted
antiviral effect of PCZ given during binding (NS3) (DENV-2 [3]; shD2R-N18 cells (D2R-deficient)): not
antiviral effect of PCZ given during binding (NS3) (DENV-2 [3]; shLacZ-N18 cells (control knockdown)): noted
anti-HCV activity (HCV): showed anti-HCV activity
EC50 (DENV-2 [4]; Dengue virus, DENV2, HEK-293T): 88.4 nM
DENV-2 binding quantified by plaque forming assay (DENV-2 [5]; A549 cells, MOI=5): dose-dependently reduced
levels of DENV-2 bound to the cell surface (confocal imaging) (DENV-2 [5]; HEK293T, PCZ 1 h before and during virus adsorption at 4° C.): reduced the levels of DENV-2 bound to the cell surface
LD50 ([6]; i.p. injection): 191 mg/kg body weight
LD50 ([6]; oral route): 400 mg/kg body weight
protection of DENV-2 challenge mice (DENV-2 NGC-N strain; oral administration at 5 μg/gram body weight daily): completely protected
cellular clathrin distribution (clathrin): showed a distinct clathrin distribution

CN1CCN(CCCN2c3ccccc3Sc3ccc(Cl)cc32)CC1 [PCZ-dimaleate, Prochlorperazine dimaleate]
JEV infection (NS3 Western blot) [7]: inhibits Japanese encephalitis virus (JEV) infection
antiviral effect against DENV-2 infection (NS3 Western blot) (DENV-2 [4]; BHK-21 cells, MOI=0.1, 2 days): shows antiviral effect against DENV-2 infection
antiviral activity against DENV-2 infection (DENV-2 [4]; HEK293T, MOI=0.1, PCZ 5, 10 and 15 μM, 2 days): exhibits antiviral activity against DENV-2 infection
antiviral effect against DENV-2 infection (NS3 Western blot) (DENV-2 [4]; N18 cells, MOI=0.1, 1 day): shows antiviral effect against DENV-2 infection
animal mortality timing (DENV-2 NGC-N strain; 1 mg PCZ/kg body weight/day, immediate treatment): delayed animal mortality
overall animal survival (DENV-2 NGC-N strain; 1 mg PCZ/kg body weight/day, immediate treatment, first i.p. then oral): 50%
death timing (DENV-2 NGC-N strain; 5 mg PCZ/kg body weight, 6-h delay treatment): delayed death
overall survival (DENV-2 NGC-N strain; 5 mg PCZ/kg body weight, 6-h delay treatment, 10 days): 50%
protection against death (DENV-2 NGC-N strain; 5 mg/kg body weight/day, immediate treatment, first i.p. then oral, 10 days): completely protected against death

O=C(CCCN1CCC(O)(c2ccc(Cl)cc2)CC1)c1ccc(F)cc1 [haloperidol]
antiviral activity against DENV-2 infection (NS3 Western blot) (DENV-2 [4]; HEK293T, MOI=0.1, 1 day): showed antiviral activity against DENV-2 infection

DENV-2 PL046 strain (dengue virus serotype 2), whole virion
fold lower cell-bound virus on D2R-knockdown cells than on controls [8]: 6 times

prochlorperazine dimethanesulfonate [PCZ-Novamin]
DENV-1 replication (NS3 Western blot) (DENV-1): reduced DENV-1 replication
protein expression of viral NS3 (DENV-2 [4]; DENV-2-infected HEK293T cells, IFA and Western blot): dose-dependently reduced
EC50 (DENV-2 [4]; HEK293T cells, calculated by a published method): 88.4 nM
viral progeny production by plaque-forming assay (DENV-2 [4]; HEK293T, DENV-2 MOI=1, 24 h): significantly reduced viral progeny production
DENV-2-induced lethality timing (DENV-2 NGC-N strain; [9]): slightly delayed
overall survival (DENV-2 NGC-N strain; [9]): 20%
protection against DENV-2 challenge after 10 days of infection (DENV-2 NGC-N strain; 4 mg PCZ/kg body weight/2 days i.p., immediate treatment): completely protected
overall survival (DENV-2 NGC-N strain; 4 mg PCZ/kg/2 days i.p., immediate treatment): 40%
overall survival and mortality timing (DENV-2 NGC-N strain; 4 mg kg body weight/2 days i.p., from 6 h post-infection): did not improve the overall survival but delayed the mortality
mice surviving the DENV-2 challenge (DENV-2 NGC-N strain; 8 mg PCZ/kg body weight/2 days i.p., from 6 h post-infection): 40%
protection against DENV-2 challenge after 10 days of infection (DENV-2 NGC-N strain; 8 mg PCZ/kg body weight/2 days i.p., immediate treatment): completely protected
state of mice after treatment stopped at day 10 post-infection (DENV-2 NGC-N strain; 8 mg PCZ/kg/2 days i.p., immediate treatment): remained healthy

— US20140066438A1, “DOPAMINE RECEPTOR D2 ANTAGONIST FOR PREVENTION AND TREATMENT OF FLAVIVIRUS INFECTION” (Academia Sinica, priority 2012, published 2014)
